The values that follow come from ChEMBL document CHEMBL1201862, “PubChem BioAssay data set” (2004).

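A five-concentration, 48-hour dose response in 96-well plates underlies each endpoint, interpolated linearly between surrounding concentrations. GI50: concentration for 50% inhibition of growth.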 Calls of active or inactive are those of the source. No stated cut-off is given here; in the data, active = GI50 up to about 1.1 µM and inactive = higher. Square brackets hold non-standard residues; d marks the D form. Peptide text beside a SMILES is read from it. * marks the point of attachment. Bn2Val = CC(C)[C@@H](C(=O)*)N(Cc1ccccc1)Cc1ccccc1; NH(3,4-diMeO-benzyl) = COc1ccc(CN*)cc1OC; NMeV = CN[C@H](C(=O)O)C(C)C; dNMeA = CN[C@H](C)C(=O)O

Some test systems named below: DMS-114; M19-MEL; DMS-273; KM-20L2; LXFL 529; SNB-78; XF498; BT-549.
Assay in all cases: NCI anticancer screen, dose series, 48 h

Take `COc1cc2c(cc1O)CN1CCC23C=C[C@@H](O)CC13` (stereo partly specified): the GI50 is 54.5 µM (inactive) in the assay on DMS-114; 38.1 µM (inactive) in the assay on M19-MEL; 57.4 µM (inactive) with DMS-273; > 100 µM (inactive) with KM-20L2; 51.3 µM (inactive) in the assay on LXFL 529; > 100 µM (inactive) in the assay on SNB-78.

In the case of `COC(=O)[C@H]1[C@H]2C[C@@H]3c4[nH]c5cc(OC)ccc5c4CCN3C[C@H]2C[C@@H](OC(=O)c2cc(OC)c(OC)c(OC)c2)[C@@H]1OC` [RESERPINE], the GI50 is 15.6 µM (inactive) in the assay with DMS-114; 20.9 µM (inactive) in the assay with M19-MEL; 20 µM (inactive) in the assay on DMS-273; 16.7 µM (inactive) in the assay on KM-20L2; 14.4 µM (inactive) in the assay on LXFL 529.

For the compound `COc1ccccc1-n1c(N)c2c(C)c(-c3ccccc3)[nH]c2nc1=S`, the GI50 is > 100 µM (inactive) in the assay with XF498; > 100 µM (inactive) in the assay on DMS-114; > 100 µM (inactive) with M19-MEL; > 100 µM (inactive) in the assay with DMS-273; 18.7 µM (inactive) in the assay with KM-20L2; > 100 µM (inactive) in the assay on LXFL 529.

As to `Cc1ccccc1NC(=O)c1cc2cc(/N=N/c3ccccc3C(=O)O)ccc2oc1=O`, the GI50 was 14.6 µM (inactive) with DMS-114, 9.38 µM (inactive) in the assay on M19-MEL, 21 µM (inactive) in the assay on DMS-273 and 16.9 µM (inactive) with KM-20L2.

On to `N#Cc1c2c(c(N=[N+]=[N-])n3c1nc1ccccc13)CCCC2`, for which the GI50 in the assay with XF498 is 1.75 µM (inactive); with DMS-114, 1.19 µM (inactive); in the assay with M19-MEL, 1.75 µM (inactive); with DMS-273, 2.37 µM (inactive); in the assay on KM-20L2 it was 2.24 µM (inactive); with SNB-78, 3.56 µM (inactive).

Take `CC1=C2C(=CC(C)(C)[C@@H]2O)C(=O)[C@](C)(O)C12CC2` [ILLUDIN M]: the GI50 with XF498 is 0.01 µM (active); with DMS-114 it was 0.0251 µM (active); in the assay with M19-MEL, 0.0246 µM (active); in the assay on DMS-273, 0.01 µM (active); with KM-20L2, 0.0156 µM (active); with LXFL 529, 0.022 µM (active).

As for `O=C1C(c2ccc([N+](=O)[O-])cc2)=[N+]([O-])c2ccccc21`, the GI50 is 10.7 µM (inactive) with DMS-114; 17.2 µM (inactive) in the assay with M19-MEL; > 10 µM (inactive) with DMS-273; 19.8 µM (inactive) in the assay with LXFL 529; 22.5 µM (inactive) in the assay on SNB-78.

Consider `O=C(O)Cn1ncn(NC(=O)Cc2ccccc2)c1=S`, for which, in the assay on BT-549, the GI50 is > 10 µM (inactive).

For the compound `N/C(=N\c1ccc(Cl)c(Cl)c1)c1ccccc1N`, in the assay with BT-549, the GI50 is 24 µM (inactive).

In the case of `COc1ccc(CNC(=O)[C@@H](C)N(C)C(=O)[C@@H]2CCCN2C(=O)[C@H](C(C)C)N(C)C(=O)[C@@H](NC(=O)[C@H](C(C)C)N(Cc2ccccc2)Cc2ccccc2)C(C)C)cc1OC` (Bn2Val-V[NMeV]P[dNMeA]-{NH(3,4-diMeO-benzyl)}), the GI50 in the assay on BT-549 is 7.69 µM (inactive).

Turning to `CC(=O)c1cc2c(Br)cccc2oc1=O`, in the assay with BT-549, the GI50 is 79.1 µM (inactive).

As for `CC12CCC(C1)C(C)(C)C2OC(=O)c1ccccc1C(=O)O` (stereo unspecified), the GI50 in the assay with BT-549 is > 100 µM (inactive).

In the case of `Clc1ccc(-c2ccc(-c3nnc(COc4ccc(OCc5nnc(-c6ccc(-c7ccc(Cl)cc7Cl)o6)o5)c(Cl)c4)o3)o2)c(Cl)c1`, the GI50 in the assay on BT-549 was > 100 µM (inactive).

On to `CCOC(=O)/C=C(/C(=O)OCC)n1ccc(=O)n(/C(=C/C(=O)OCC)C(=O)OCC)c1=O`, for which the GI50 in the assay on BT-549 is 15.3 µM (inactive).

As for `CN(C)CCN1C(=O)N(CCN(C)C)c2c3cc(O)ccc3nc3c([N+](=O)[O-])ccc1c23`, the GI50 in the assay on BT-549 is 19.8 µM (inactive).

Regarding `Nc1nc(-[n+]2ccc(-c3ccncc3)cc2)nc(Cl)c1Cl`, in the assay on BT-549, the GI50 was > 100 µM (inactive).

Take `Nc1nc(Cl)nc(NCc2ccccc2)n1`: the GI50 in the assay on BT-549 is > 100 µM (inactive).

As to `O=C(NCCC1CN(S(=O)(=O)C(F)(F)F)c2ccccc21)OCc1ccccc1` (stereo unspecified), the GI50 in the assay on BT-549 was > 100 µM (inactive).

In the case of `c1ccc(C2=NN=C3C(c4ccccc4)=Nc4ccccc4N3C2)cc1`, in the assay with BT-549, the GI50 is 32.4 µM (inactive).

Take `CC1(C)COC2=C(C1)C(=O)c1ccccc1C2=O`: the GI50 in the assay with BT-549 was 1.85 µM (inactive).
